The test system of test [1] is Dipeptidyl Peptidase I (DP I, Cathepsin C). The experiment in a line: Cross reacting enzymes - dipeptidyl peptidase I. To be noted: concentration range 1*10^−5 M-1*10^−7M; MES buffer pH5.6. The format is biochemical. On the procedure: DP I or cathepsin C is a lysosomal cysteine protease which cleaves off dipeptides from the N-terminus of their substrates (Gutman, H. R. & Fruton, J. S., 1948, J. Biol: Chem., 174, 851-858). It is classified as a cysteine protease. The enzyme used was purchased from Qiagen (Qiagen GmbH, Hilden, Germany). In order to get a fully active enzyme, the enzyme was diluted 1000 fold in MES buffer pH5.6 (40 mM MES, 4 mM DTT, 4 mM KCl, 2 mM EDTA, 0.015% Brij) and pre-incubated for 30 min at 30° C.
50 μl glutaminyl pyrrolidine or glutaminyl thiazolidine in a concentration range of 1*10^−5 M-1*10^−7M were admixed with 110 μl buffer-enzyme-mixture. The assay mixture was pre-incubated at 30° C. for 15 min. After pre-incubation, 100 μl histidylseryl-[…]-nitroaniline (2*10^−5M) was added and measurement of yellow color development due to β-nitroaniline release was performed at 30° C. and […] for 10 min., using a plate reader (HTS7000 plus, Applied Biosystems, Weiterstadt, Germany).
The IC50-values were calculated using Graphit 4.0.15 (Erithacus Software, Ltd., UK).

Test [2] deals with T1, recombinant human prolyl oligopeptidase (Homo sapiens, UniProt P48147).
T1 construct: made in house; host or cells: E. coli
T1 sequence (P48147 1-710): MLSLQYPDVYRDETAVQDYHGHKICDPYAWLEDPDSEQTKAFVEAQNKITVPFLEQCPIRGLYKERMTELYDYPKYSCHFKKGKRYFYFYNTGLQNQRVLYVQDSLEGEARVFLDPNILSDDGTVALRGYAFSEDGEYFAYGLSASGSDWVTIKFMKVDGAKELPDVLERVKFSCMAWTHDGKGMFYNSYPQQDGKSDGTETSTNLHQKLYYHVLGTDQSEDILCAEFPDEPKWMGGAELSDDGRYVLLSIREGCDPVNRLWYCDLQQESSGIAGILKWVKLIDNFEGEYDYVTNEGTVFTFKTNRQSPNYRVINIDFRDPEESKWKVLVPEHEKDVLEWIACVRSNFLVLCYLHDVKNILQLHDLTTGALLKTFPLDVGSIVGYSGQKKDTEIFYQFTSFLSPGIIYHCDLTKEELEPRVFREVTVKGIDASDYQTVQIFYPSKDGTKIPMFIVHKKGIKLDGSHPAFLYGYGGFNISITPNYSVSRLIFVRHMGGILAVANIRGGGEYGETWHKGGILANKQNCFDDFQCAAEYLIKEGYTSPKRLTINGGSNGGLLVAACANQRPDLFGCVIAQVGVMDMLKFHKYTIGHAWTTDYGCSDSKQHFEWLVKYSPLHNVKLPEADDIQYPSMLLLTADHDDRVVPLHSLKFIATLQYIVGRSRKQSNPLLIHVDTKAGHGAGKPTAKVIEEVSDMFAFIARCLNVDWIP
The experiment in a line: Cross reacting enzymes - prolyl oligopeptidase. The format is biochemical. To be noted: concentration range 1*10^−4M-5*10^−8 M; pH7.6. On the procedure: Substrates are peptides with a molecular weight up to 3000 Da. The enzyme used was a recombinant human prolyl oligopeptidase. Recombinant expression was performed in E. coli under standard conditions as described elsewhere in the state of the art.
100 μl glutaminyl pyrrolidine or glutaminyl thiazolidine in an concentration range of 1*10^−4M-5*10^−8 M were admixed with 100 μl μl buffer solution (40 mM HEPES, pH7.6, 0.015% Brij, 1 mM DTT) and 20 μl POP solution. The assay mixture was pre-incubated at 30° C. for 15 min. After pre-incubation, 50 μl glycylprolylprolyl-4-nitroaniline solution (0.29 mM) was added and measurement of yellow color development due to 4-nitroaniline release was performed at 30° C. and λ=405 nm for 10 min using a plate reader (sunrise, Tecan, Crailsheim, Germany). The IC50-values were calculated using Graphit 4.0.15 (Erithacus Software, Ltd., UK).

The subject of the next test is diabetic Zucker rats. Description: Dose escalation study in fatty Zucker rats, oral glucose tolerance test. The format is in vivo, rat. To be noted: 2 g/kg glucose. On the procedure:
N=30 male Zucker rats (fa/fa), mean age 11 weeks (5-12 weeks), mean body weight 350 g (150-400 g), were purchased from Charles River (Sulzfeld, Germany).
After delivery they were kept for >12 weeks until nearly all fatty Zucker rats had the characteristics of manifest diabetes mellitus. A group of N=8 animals were recruited for testing three escalating doses of glutaminyl pyrrolidine vs. placebo (saline).
Placebo (1 ml saline, 0.154 mol/l) or escalating doses of glutaminyl pyrrolidine (5, 15 and 50 mg/kg b.w.) were administered to groups of N=8 fatty Zucker rats. 375 mg of glutaminyl pyrrolidine were dissolved in 1000 μl DMSO (E. Merck, Darmstadt; Germany [Dimethyl sulfoxide p.a.]). 10 ml saline were added and 1 ml aliquots, each containing 34.09 mg of glutaminyl pyrrolidine, were stored at −20° C. For preparation of the test substance, dose dependent aliquots were diluted in saline.
After overnight fasting, placebo or test substance were administered to the fatty Zucker rats via feeding tube orally (15 G, 75 mm; Fine Science Tools, Heidelberg, Germany) at −10 min An oral glucose tolerance test (OGTT) with 2 g/kg b.w. glucose (40% solution, B. Braun Melsungen, Melsungen, Germany) was administered at ±0 min via a second feeding tube. Venous blood samples from the tail veins were collected at −30 min, −15 min, ±0 min and at 5, 10, 15, 20, 30, 40, 60, 90 and 120 min into 20 μl glass capillaries, which were placed in standard tubes filled with 1 ml solution for blood glucose measurement.
Glucose levels were measured using the glucose oxidase procedure (Super G Glucose analyzer; Dr. Müller Gerätebau, Freital, Germany).
Statistical evaluations and graphics were performed with PRISM® 3.02 (GraphPad Software, Inc.). All parameters were analysed in a descriptive manner including mean and SD.
After delivery they were kept for >12 weeks until nearly all fatty Zucker rats had the characteristics of manifest diabetes mellitus. […]
Glucose levels were measured using the glucose oxidase procedure (Super G Glucose analyzer; Dr. Möller Gerätebau, Freital, Germany).

Consider one compound from patent US20070207946A1, “Dipeptidyl peptidase IV inhibitors and their uses for lowering blood pressure levels” (priority 2001, published 2007).

SMILES strings stand for the structures.

Take `NC(=O)CCC(N)C(=O)N1CCCC1` (centres unmarked) [Gln-Pyrr, glutaminyl pyrrolidine]: in test [1], the “inhibition of DP I enzyme activity” value is on record as “No inhibition”. Besides, the “inhibition of POP activity” value in test [2] is recorded as “No inhibition”. In the test on diabetic Zucker rats (5 mg/kg b.w. oral), the “glucose tolerance (OGTT)” value is on record as “limited improvement”. For the same compound, the “elevated blood glucose levels and glucose tolerance (OGTT)” value in the test with diabetic Zucker rats (15 mg/kg oral) and in the test on diabetic Zucker rats (50 mg/kg b.w. oral) was “Significant lowering” throughout.
